System: HUVEC/MSC spheroids viability
Assay: Human HUVEC/MSC cell line growth inhibition [KRAS2];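 as to viability, T/C: percent of DMSO vehicle control luminescence so 100% = untreated viability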
Conditions: for IC50: curve of first compound; for viability, T/C: stronger effect = lower value
In short: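 Growth/viability of tumour-free HUVEC–hMSC spheroids was measured after exposure to targeted small molecules and KRAS inhibitors, singly or in combination. Agents were diluted in half-log steps from Cmax-based top concentrations, capped at 10 microM without known Cmax.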

[1] = second compound 0.0316 µM, first compound 0.0316 µM
[2] = second compound 0.0316 µM, first compound 0.1 µM
[3] = second compound 0.0316 µM, first compound 0.316 µM
[4] = second compound 0.0316 µM, first compound 1 µM
[5] = second compound 0.1 µM, first compound 0.0316 µM
[6] = second compound 0.1 µM, first compound 0.1 µM
[7] = second compound 0.1 µM, first compound 0.316 µM
[8] = second compound 0.1 µM, first compound 1 µM
[9] = second compound 0.316 µM, first compound 0.0316 µM
[10] = second compound 0.316 µM, first compound 0.1 µM
[11] = second compound 0.316 µM, first compound 0.316 µM
[12] = second compound 0.316 µM, first compound 1 µM
[13] = second compound 1 µM, first compound 0.0316 µM
[14] = second compound 1 µM, first compound 0.1 µM
[15] = second compound 1 µM, first compound 0.316 µM
[16] = second compound 1 µM, first compound 1 µM
[17] = second compound 3.16 µM, first compound 0.0316 µM
[18] = second compound 3.16 µM, first compound 0.1 µM
[19] = second compound 3.16 µM, first compound 0.316 µM
[20] = second compound 3.16 µM, first compound 1 µM
[21] = second compound 10 µM, first compound 0.0316 µM
[22] = second compound 10 µM, first compound 0.1 µM
[23] = second compound 10 µM, first compound 0.316 µM
[24] = second compound 10 µM, first compound 1 µM
[25] = second compound 0.0316 µM, first compound 0.00316 µM
[26] = second compound 0.0316 µM, first compound 0.01 µM
[27] = second compound 0.1 µM, first compound 0.00316 µM
[28] = second compound 0.1 µM, first compound 0.01 µM
[29] = second compound 0.316 µM, first compound 0.00316 µM
[30] = second compound 0.316 µM, first compound 0.01 µM
[31] = second compound 1 µM, first compound 0.00316 µM
[32] = second compound 1 µM, first compound 0.01 µM
[33] = second compound 3.16 µM, first compound 0.00316 µM
[34] = second compound 3.16 µM, first compound 0.01 µM
[35] = second compound 10 µM, first compound 0.00316 µM
[36] = second compound 10 µM, first compound 0.01 µM

CC1(C)CCC(CN2CCN(c3ccc(C(=O)NS(=O)(=O)c4ccc(NCC5CCOCC5)c([N+](=O)[O-])c4)c(Oc4cnc5[nH]ccc5c4)c3)CC2)=C(c2ccc(Cl)cc2)C1 + COc1cc2nc(C)nc(NC(C)c3cc(N)cc(C(F)(F)F)c3)c2cc1OC1CCOC1
IC50 (second compound 0.0316 µM): 5090 nM | IC50 (second compound 0.1 µM): 4590 nM | IC50 (second compound 0.316 µM): 4780 nM | IC50 (second compound 1 µM): 5010 nM | IC50 (second compound 3.16 µM): 5490 nM | IC50 (second compound 10 µM): 4610 nM | viability, T/C [1]: 105% | viability, T/C [2]: 116% | viability, T/C [3]: 105% | viability, T/C [4]: 96.6% | viability, T/C (second compound 0.0316 µM, first compound 3.16 µM): 82.3% | viability, T/C (second compound 0.0316 µM, first compound 10 µM): 6.99% | viability, T/C [5]: 98.5% | viability, T/C [6]: 94.6% | viability, T/C [7]: 102% | viability, T/C [8]: 100% | viability, T/C (second compound 0.1 µM, first compound 3.16 µM): 72.8% | viability, T/C (second compound 0.1 µM, first compound 10 µM): 2.34% | viability, T/C [9]: 82.7% | viability, T/C [10]: 104% | viability, T/C [11]: 76.6% | viability, T/C [12]: 81.5% | viability, T/C (second compound 0.316 µM, first compound 3.16 µM): 76.3% | viability, T/C (second compound 0.316 µM, first compound 10 µM): 5.03% | viability, T/C [13]: 95.7% | viability, T/C [14]: 79.5% | viability, T/C [15]: 84% | viability, T/C [16]: 92% | viability, T/C (second compound 1 µM, first compound 3.16 µM): 81% | viability, T/C (second compound 1 µM, first compound 10 µM): 3.29% | viability, T/C [17]: 73.1% | viability, T/C [18]: 105% | viability, T/C [19]: 110% | viability, T/C [20]: 95.2% | viability, T/C (second compound 3.16 µM, first compound 3.16 µM): 87.7% | viability, T/C (second compound 3.16 µM, first compound 10 µM): 8.97% | viability, T/C [21]: 61.3% | viability, T/C [22]: 70.5% | viability, T/C [23]: 78.9% | viability, T/C [24]: 68.2% | viability, T/C (second compound 10 µM, first compound 3.16 µM): 80.6% | viability, T/C (second compound 10 µM, first compound 10 µM): 5.02%

CCN1CCN(Cc2ccc(Nc3ncc(F)c(-c4cc(F)c5nc(C)n(C(C)C)c5c4)n3)nc2)CC1 + COc1cc2nc(C)nc(NC(C)c3cc(N)cc(C(F)(F)F)c3)c2cc1OC1CCOC1
IC50 (second compound 0.0316 µM): > 1000 nM | IC50 (second compound 0.1 µM): > 1000 nM | IC50 (second compound 0.316 µM): > 1000 nM | IC50 (second compound 1 µM): > 1000 nM | IC50 (second compound 3.16 µM): > 1000 nM | IC50 (second compound 10 µM): > 1000 nM | viability, T/C [25]: 93.3% | viability, T/C [26]: 77% | viability, T/C [1]: 87.6% | viability, T/C [2]: 80.3% | viability, T/C [3]: 93.4% | viability, T/C [4]: 122% | viability, T/C [27]: 77.7% | viability, T/C [28]: 90.9% | viability, T/C [5]: 83.1% | viability, T/C [6]: 73.7% | viability, T/C [7]: 105% | viability, T/C [8]: 106% | viability, T/C [29]: 72.5% | viability, T/C [30]: 92.5% | viability, T/C [9]: 79.4% | viability, T/C [10]: 79% | viability, T/C [11]: 96.1% | viability, T/C [12]: 121% | viability, T/C [31]: 76.1% | viability, T/C [32]: 68.8% | viability, T/C [13]: 71.2% | viability, T/C [14]: 77.2% | viability, T/C [15]: 95.7% | viability, T/C [16]: 117% | viability, T/C [33]: 65.8% | viability, T/C [34]: 74.4% | viability, T/C [17]: 65.4% | viability, T/C [18]: 69.9% | viability, T/C [19]: 77% | viability, T/C [20]: 103% | viability, T/C [35]: 63.7% | viability, T/C [36]: 76.7% | viability, T/C [21]: 65.7% | viability, T/C [22]: 56.4% | viability, T/C [23]: 66.5% | viability, T/C [24]: 75%

Cn1ncnc1[C@H]1c2n[nH]c(=O)c3cc(F)cc(c23)N[C@@H]1c1ccc(F)cc1 + COc1cc2nc(C)nc(NC(C)c3cc(N)cc(C(F)(F)F)c3)c2cc1OC1CCOC1
IC50 (second compound 0.0316 µM): > 100 nM | IC50 (second compound 0.1 µM): > 100 nM | IC50 (second compound 0.316 µM): > 100 nM | IC50 (second compound 1 µM): > 100 nM | IC50 (second compound 3.16 µM): > 100 nM | IC50 (second compound 10 µM): > 100 nM | viability, T/C (second compound 0.0316 µM, first compound 0.000316 µM): 107% | viability, T/C (second compound 0.0316 µM, first compound 0.001 µM): 110% | viability, T/C [25]: 118% | viability, T/C [26]: 89.7% | viability, T/C [1]: 109% | viability, T/C [2]: 96.8% | viability, T/C (second compound 0.1 µM, first compound 0.000316 µM): 89.2% | viability, T/C (second compound 0.1 µM, first compound 0.001 µM): 96.9% | viability, T/C [27]: 100% | viability, T/C [28]: 117% | viability, T/C [5]: 96% | viability, T/C [6]: 107% | viability, T/C (second compound 0.316 µM, first compound 0.000316 µM): 92.9% | viability, T/C (second compound 0.316 µM, first compound 0.001 µM): 101% | viability, T/C [29]: 102% | viability, T/C [30]: 103% | viability, T/C [9]: 97.3% | viability, T/C [10]: 89.3% | viability, T/C (second compound 1 µM, first compound 0.000316 µM): 95.2% | viability, T/C (second compound 1 µM, first compound 0.001 µM): 89.9% | viability, T/C [31]: 99.3% | viability, T/C [32]: 88.9% | viability, T/C [13]: 89.3% | viability, T/C [14]: 79.5% | viability, T/C (second compound 3.16 µM, first compound 0.000316 µM): 90.9% | viability, T/C (second compound 3.16 µM, first compound 0.001 µM): 104% | viability, T/C [33]: 85.8% | viability, T/C [34]: 101% | viability, T/C [17]: 92.3% | viability, T/C [18]: 81.1% | viability, T/C (second compound 10 µM, first compound 0.000316 µM): 72% | viability, T/C (second compound 10 µM, first compound 0.001 µM): 75.9% | viability, T/C [35]: 81.9% | viability, T/C [36]: 66.8% | viability, T/C [21]: 77.6% | viability, T/C [22]: 73.3%

Source: PubChem BioAssay AID2060912 (Molecular Pharmacology Branch, DTP, NCI, 2025)
